# Data as given in patent US20240398845A1, “USE OF SGLT-2 INHIBITORS FOR THE PREVENTION AND/OR TREATMENT OF CARDIAC DISEASES IN NON-HUMAN MAMMALS EXCLUDING FELINES, IN PARTICULAR CANINES” (BOEHRINGER INGELHEIM VETMEDICA GMBH, priority 2021, published 2024).
# Test system: client-owned dog patients diagnosed with DCM (modified NYHA class 2 and 3)
# Assay: Exploratory clinical field study "DCM" - outline
# Format: in vivo
# Conditions: dogs with DCM; velagliflozin 0.3 mg/kg bodyweight orally once daily; example headed Outline
# Method: Client-owned dog patients (older than 1 year) diagnosed with DCM via physical and echocardiography (modified NYHA class 2 and 3) are treated orally and once daily with a velagliflozin dosage of 0.3 mg/kg bodyweight. During the study period the body weight, body condition score, blood pressure and the cardiovascular system are examined on a regular basis during the visits at the site by the investigator. Additionally, thoracic radiographs (in the right lateral and dorso ventral view), echocardiography (IVSd, LA diameter, Ao diameter, LVIDd, LVWd, LVWs, IVSd, LVPWd, EDV, ESV, EF, % FS, presence of effusion) and electrocardiography are performed. In order to obtain an overview as complete as possible regular blood tests include a complete hematology (white blood cells (WBC), WBC differential, red blood cells, hemoglobin, hematocrit, Heinz bodies, platelet count), a biochemistry panel (total protein, Albumin, Globulin, Alkaline phosphatase (ALP), Alanine transaminase (ALT), Aspartate transaminase (AST), Total bilirubin, Creatinine, Blood urea nitrogen or urea (BUN), Calcium, Sodium, Potassium, Chloride, Phosphorus, Glucose, Cholesterol, Triglycerides, Fructosamine), the measurement of total T4, ketone bodies and cardiac biomarkers (Plasma NT-pro BNP, Cardiac troponin I). […]
smiles,measurement,value
"N#Cc1ccc([C@@H]2O[C@H](CO)[C@@H](O)[C@H](O)[C@H]2O)cc1Cc1ccc(C2CC2)cc1 [velagliflozin, Velagliflozin]","clinical parameters (e.g. appetite, activity level and breathing)",improve significantly
same,"survival time and time to event (overall death, cardiovascular death or hospitalization for heart failure)",clinically relevant prolongation
